Measurements from ChEMBL document CHEMBL4052632 (Eur J Med Chem, 2017).

Key:
[1] = biological target: 5'-AMP-activated protein kinase catalytic subunit alpha-1 (Homo sapiens) (UniProt Q13131); assay: Inhibition of full length recombinant human AMPKalpha1 using AMARAASAAALARRR as substrate at 100 uM after 40 mins in presence of ATP relative to control
[2] = biological target: Cyclin-dependent kinase 2/cyclin E1 (Homo sapiens) (UniProt P24864+P24941); assay: Inhibition of recombinant human CDK2/CyclinE using Ulight-CFFKNIVTPRTPPPSQGK-amide as substrate at 100 uM after 30 mins in presence of ATP relative to control; format: protein-complex assay
[3] = biological target: RAC-alpha serine/threonine-protein kinase (Homo sapiens) (UniProt P31749); assay: Inhibition of recombinant human PKBalpha using CREBtide (CKRREILSRRPSYRK) as substrate at 100 uM after 60 mins in presence of ATP relative to control
Homo sapiens = species: Homo sapiens; assay: Inhibition of human PKA at 100 uM in presence of ATP relative to control
[4] = biological target: Mitogen-activated protein kinase 1 (Homo sapiens) (UniProt P28482); assay: Inhibition of human MAPK2 at 100 uM in presence of ATP relative to control
[5] = biological target: Receptor tyrosine-protein kinase erbB-2 (Homo sapiens) (UniProt P04626); assay: Inhibition of ErbB2 (unknown origin) using poly (Glu, Tyr) 4:1 as substrate at 100 uM after 1 hr by ELISA relative to control
[6] = biological target: Epidermal growth factor receptor (Homo sapiens) (UniProt P00533); assay: Inhibition of EGFR (unknown origin) using poly (Glu, Tyr) 4:1 as substrate at 100 uM after 1 hr by ELISA relative to control
[7] = biological target: Ephrin type-A receptor 2 (Homo sapiens) (UniProt P29317); assay: Inhibition of EPH-A2 (unknown origin) using poly (Glu, Tyr) 4:1 as substrate at 100 uM after 1 hr by ELISA relative to control
[8] = biological target: ALK tyrosine kinase receptor (Homo sapiens) (UniProt Q9UM73); assay: Inhibition of ALK (unknown origin) using poly (Glu, Tyr) 4:1 as substrate at 100 uM after 1 hr by ELISA relative to control
A2780 [9] = assay: Cell cycle arrest in human A2780 cells assessed as accumulation at G0/G1 phase at 5 to 15 uM after 48 hrs by propidium iodide staining based flow cytometry ( Rvb = 60%); format: functional
A2780 [10] = assay: Cell cycle arrest in human A2780 cells assessed as decrease in G2/M phase after 48 hrs by propidium iodide staining based flow cytometry; format: functional
A2780 [11] = assay: Induction of apoptosis in human A2780 cells after 24 hrs by annexin V/propidium iodide staining based flow cytometry; format: functional, cell-based
[12] = biological target: Glycogen synthase kinase-3 beta (Homo sapiens, UniProt P49841); assay: biochemical
Sequence of Glycogen synthase kinase-3 beta (P49841 whole entry): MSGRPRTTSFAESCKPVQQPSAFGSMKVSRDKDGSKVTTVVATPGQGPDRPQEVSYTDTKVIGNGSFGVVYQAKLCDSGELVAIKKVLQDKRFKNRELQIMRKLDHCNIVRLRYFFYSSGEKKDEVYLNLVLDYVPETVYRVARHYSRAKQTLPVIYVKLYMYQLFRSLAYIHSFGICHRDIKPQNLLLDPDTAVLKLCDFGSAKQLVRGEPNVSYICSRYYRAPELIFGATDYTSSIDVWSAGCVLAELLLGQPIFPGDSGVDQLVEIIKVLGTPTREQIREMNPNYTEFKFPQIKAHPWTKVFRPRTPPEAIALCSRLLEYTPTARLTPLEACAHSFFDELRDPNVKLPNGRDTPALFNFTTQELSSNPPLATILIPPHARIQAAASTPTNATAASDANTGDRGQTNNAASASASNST
Description: Inhibition of recombinant N-terminal His6-tagged human GSK3beta H350L mutant expressed in baculovirus infected Sf21 insect cells using polypeptide GS-2 as substrate after 30 mins in presence of ATP by kinase-glo luminescence assay

Sequence of 5'-AMP-activated protein kinase catalytic subunit alpha-1 (Homo sapiens) (Q13131 whole entry, looked up): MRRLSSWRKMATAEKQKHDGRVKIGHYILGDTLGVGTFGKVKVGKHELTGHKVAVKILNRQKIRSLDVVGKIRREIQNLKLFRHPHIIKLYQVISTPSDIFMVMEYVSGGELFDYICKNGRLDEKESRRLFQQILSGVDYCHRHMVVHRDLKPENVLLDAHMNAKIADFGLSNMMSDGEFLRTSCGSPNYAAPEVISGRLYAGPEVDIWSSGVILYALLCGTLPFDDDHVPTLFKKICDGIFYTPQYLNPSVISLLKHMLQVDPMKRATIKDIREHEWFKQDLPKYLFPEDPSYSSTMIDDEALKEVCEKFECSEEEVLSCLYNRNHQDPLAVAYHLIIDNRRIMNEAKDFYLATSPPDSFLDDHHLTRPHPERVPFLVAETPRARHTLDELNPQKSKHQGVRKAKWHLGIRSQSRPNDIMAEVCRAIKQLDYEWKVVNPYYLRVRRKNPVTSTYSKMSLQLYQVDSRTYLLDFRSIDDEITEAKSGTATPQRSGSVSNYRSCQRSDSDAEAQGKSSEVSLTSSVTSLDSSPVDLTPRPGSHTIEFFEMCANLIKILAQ
Sequence of ALK tyrosine kinase receptor (Homo sapiens) (Q9UM73 19-1620 limits assumed): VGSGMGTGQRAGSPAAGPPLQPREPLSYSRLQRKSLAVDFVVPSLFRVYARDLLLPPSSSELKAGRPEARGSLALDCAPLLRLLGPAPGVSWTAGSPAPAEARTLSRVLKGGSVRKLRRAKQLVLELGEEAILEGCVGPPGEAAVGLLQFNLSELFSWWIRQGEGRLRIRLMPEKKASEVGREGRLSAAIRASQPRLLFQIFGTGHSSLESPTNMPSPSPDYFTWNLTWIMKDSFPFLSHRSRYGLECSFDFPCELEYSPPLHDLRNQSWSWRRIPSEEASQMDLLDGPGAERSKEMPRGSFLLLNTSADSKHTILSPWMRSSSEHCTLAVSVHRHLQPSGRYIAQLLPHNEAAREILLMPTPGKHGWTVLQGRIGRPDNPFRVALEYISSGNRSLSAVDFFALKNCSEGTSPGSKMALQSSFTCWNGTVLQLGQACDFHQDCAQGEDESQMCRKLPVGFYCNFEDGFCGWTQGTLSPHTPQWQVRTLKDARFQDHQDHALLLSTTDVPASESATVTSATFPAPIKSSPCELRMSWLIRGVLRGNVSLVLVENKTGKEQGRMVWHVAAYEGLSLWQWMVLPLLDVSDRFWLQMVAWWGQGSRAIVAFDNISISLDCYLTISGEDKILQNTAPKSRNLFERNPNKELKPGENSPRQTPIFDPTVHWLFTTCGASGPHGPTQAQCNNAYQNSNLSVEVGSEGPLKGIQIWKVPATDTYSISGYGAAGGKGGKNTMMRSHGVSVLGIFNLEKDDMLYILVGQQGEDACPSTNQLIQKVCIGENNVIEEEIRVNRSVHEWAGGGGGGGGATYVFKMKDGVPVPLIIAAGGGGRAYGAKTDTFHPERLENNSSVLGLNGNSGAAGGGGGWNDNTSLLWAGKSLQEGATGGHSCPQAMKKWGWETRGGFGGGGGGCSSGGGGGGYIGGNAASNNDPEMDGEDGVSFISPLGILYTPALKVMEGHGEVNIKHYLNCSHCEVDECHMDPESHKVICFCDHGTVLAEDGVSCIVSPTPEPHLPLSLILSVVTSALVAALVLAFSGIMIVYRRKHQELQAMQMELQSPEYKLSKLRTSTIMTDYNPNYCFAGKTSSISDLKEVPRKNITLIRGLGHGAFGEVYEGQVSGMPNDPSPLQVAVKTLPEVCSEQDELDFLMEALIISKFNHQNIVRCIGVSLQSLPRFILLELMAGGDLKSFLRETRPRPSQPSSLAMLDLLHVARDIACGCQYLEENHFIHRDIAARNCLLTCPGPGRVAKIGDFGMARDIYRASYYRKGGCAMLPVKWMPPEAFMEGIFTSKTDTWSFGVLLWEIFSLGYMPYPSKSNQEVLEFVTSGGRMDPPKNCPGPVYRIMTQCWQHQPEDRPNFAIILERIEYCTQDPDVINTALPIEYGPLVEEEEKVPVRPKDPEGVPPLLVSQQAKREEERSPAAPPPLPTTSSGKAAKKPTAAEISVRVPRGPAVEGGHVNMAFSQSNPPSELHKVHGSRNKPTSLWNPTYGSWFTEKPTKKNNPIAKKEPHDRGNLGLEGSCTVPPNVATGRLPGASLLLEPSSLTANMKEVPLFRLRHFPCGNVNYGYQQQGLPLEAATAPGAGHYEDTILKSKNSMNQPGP
Sequence of RAC-alpha serine/threonine-protein kinase (Homo sapiens) (P31749 whole entry): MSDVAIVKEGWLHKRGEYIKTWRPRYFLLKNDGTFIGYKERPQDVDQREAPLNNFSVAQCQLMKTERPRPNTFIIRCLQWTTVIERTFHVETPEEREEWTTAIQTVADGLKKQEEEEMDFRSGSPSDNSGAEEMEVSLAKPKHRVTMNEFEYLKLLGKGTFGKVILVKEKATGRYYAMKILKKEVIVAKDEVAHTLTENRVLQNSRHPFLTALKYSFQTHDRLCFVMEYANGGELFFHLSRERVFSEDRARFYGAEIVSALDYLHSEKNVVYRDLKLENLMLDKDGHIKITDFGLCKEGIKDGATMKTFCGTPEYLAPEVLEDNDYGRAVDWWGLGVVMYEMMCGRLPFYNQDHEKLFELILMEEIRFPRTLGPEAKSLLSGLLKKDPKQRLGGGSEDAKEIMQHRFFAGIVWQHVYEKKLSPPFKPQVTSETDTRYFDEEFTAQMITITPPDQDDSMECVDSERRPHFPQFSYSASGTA
Sequence of Receptor tyrosine-protein kinase erbB-2 (Homo sapiens) (P04626 whole entry): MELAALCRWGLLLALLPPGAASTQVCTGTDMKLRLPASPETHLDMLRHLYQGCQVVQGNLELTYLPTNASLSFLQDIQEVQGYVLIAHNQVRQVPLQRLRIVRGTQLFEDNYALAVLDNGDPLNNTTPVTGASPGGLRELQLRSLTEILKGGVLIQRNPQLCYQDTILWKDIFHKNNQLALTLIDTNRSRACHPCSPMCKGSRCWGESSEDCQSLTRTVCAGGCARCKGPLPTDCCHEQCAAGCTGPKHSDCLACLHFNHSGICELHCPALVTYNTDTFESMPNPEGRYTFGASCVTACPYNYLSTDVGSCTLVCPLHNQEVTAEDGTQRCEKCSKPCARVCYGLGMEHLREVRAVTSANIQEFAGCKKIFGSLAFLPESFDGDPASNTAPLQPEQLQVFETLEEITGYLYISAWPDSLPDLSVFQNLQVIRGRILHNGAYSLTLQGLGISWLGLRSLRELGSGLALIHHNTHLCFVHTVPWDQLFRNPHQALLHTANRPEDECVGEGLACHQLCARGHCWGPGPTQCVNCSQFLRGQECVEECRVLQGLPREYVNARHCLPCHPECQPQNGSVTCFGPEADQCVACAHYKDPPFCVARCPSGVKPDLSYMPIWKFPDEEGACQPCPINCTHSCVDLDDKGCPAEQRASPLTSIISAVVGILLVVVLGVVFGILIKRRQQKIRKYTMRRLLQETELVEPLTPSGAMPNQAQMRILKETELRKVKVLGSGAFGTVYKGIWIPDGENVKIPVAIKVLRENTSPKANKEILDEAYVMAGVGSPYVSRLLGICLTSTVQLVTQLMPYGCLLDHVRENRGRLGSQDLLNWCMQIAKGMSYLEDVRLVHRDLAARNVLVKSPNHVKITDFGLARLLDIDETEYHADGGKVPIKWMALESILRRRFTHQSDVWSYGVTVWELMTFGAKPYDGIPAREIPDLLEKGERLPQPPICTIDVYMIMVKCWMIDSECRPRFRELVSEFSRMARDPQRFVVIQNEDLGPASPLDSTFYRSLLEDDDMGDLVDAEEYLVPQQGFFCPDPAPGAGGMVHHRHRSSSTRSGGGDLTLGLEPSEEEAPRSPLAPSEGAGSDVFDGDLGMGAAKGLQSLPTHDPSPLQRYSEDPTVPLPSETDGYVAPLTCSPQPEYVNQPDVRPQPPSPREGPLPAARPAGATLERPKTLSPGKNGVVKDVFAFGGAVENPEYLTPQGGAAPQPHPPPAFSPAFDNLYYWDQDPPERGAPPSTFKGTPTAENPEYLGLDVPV
Sequence of Mitogen-activated protein kinase 1 (Homo sapiens) (P28482 whole entry): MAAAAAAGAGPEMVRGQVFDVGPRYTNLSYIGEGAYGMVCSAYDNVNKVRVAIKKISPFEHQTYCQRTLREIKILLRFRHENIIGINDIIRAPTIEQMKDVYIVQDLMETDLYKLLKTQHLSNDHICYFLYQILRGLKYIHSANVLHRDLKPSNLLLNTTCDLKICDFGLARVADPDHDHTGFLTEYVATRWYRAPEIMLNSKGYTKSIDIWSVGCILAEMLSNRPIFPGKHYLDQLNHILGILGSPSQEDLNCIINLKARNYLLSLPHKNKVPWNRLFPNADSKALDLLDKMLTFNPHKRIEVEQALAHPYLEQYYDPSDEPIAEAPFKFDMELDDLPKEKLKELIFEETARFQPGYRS

## CCCCCCCCCCCCCCC(=O)NC1CCN(C(=O)C2Sc3ccccc3N(CC)C2=O)CC1 (stereo not drawn)
[1]
  inhibition: 34%
[2]
  inhibition: 39%
[3]
  inhibition: 52%
Homo sapiens
  inhibition: 36%
[4]
  inhibition: 7%
[5]
  inhibition: 0%
[6]
  inhibition: 0%
[7]
  inhibition: 13%
[8]
  inhibition: -1.7%
A2780 [9]
  Activity: 77.1%
A2780 [10]
  Activity: Dose-dependent effect
A2780 [11]
  Activity: Dose-dependent effect
[12]
  IC50: 22.4 µM
